{"source": "ChEMBL document CHEMBL1201862", "about": "“PubChem BioAssay data set” (2004)", "key": {"[1]": {"target": "Ras and Rab interactor 1/Tyrosine-protein kinase ABL1 (Homo sapiens, UniProt P00519+Q13671)", "sequence (P00519 whole entry)": "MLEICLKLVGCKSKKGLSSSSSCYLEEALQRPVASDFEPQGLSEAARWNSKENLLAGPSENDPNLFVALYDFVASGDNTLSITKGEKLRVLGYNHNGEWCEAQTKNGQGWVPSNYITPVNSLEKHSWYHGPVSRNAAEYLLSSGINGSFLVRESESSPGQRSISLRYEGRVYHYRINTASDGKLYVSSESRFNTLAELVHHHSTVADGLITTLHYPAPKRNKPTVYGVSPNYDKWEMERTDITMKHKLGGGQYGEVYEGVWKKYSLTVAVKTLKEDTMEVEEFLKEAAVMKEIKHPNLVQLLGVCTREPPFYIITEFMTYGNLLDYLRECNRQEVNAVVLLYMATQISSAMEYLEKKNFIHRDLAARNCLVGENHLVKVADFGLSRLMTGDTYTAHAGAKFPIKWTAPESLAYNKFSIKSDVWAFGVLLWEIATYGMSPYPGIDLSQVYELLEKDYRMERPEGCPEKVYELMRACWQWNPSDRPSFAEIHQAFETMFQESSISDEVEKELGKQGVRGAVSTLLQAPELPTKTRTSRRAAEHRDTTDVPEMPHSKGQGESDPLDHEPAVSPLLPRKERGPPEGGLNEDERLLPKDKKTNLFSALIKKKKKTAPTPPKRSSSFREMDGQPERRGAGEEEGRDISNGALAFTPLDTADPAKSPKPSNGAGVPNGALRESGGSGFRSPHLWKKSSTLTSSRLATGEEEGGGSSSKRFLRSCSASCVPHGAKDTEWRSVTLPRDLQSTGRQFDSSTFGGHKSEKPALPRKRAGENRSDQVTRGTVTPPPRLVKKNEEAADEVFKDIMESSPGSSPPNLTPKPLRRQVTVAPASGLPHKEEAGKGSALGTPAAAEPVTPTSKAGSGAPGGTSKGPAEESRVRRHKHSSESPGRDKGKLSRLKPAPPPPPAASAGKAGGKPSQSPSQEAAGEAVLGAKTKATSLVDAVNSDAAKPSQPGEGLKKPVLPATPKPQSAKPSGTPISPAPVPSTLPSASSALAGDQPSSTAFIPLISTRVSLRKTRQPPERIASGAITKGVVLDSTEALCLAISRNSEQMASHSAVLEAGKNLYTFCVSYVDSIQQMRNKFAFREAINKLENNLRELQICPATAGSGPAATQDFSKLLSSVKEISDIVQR", "sequence (Q13671 whole entry)": "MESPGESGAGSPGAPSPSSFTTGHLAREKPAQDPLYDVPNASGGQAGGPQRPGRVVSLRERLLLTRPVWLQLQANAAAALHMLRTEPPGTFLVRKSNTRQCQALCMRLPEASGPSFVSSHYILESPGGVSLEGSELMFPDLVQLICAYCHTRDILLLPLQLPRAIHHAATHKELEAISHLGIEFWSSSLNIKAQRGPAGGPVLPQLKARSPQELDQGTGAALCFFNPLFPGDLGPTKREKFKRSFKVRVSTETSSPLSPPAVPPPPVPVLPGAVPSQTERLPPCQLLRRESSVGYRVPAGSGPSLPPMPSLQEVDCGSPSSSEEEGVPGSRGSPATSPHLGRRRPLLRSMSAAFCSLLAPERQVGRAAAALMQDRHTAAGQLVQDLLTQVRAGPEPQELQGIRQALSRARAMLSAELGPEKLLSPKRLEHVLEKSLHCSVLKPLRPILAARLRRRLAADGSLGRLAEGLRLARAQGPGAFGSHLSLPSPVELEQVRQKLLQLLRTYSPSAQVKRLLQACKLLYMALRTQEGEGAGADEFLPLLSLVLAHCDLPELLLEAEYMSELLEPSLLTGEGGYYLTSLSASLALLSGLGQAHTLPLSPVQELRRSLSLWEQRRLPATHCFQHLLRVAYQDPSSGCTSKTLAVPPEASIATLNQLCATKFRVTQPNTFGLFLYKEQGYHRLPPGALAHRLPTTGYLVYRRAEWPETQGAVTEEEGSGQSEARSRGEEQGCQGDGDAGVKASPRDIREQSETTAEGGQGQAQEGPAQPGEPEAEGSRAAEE", "type": "functional"}, "[2]": {"experiment": "NIH-3T3 fibroblast cytotoxicity, dose response, cytotoxicity control, cell-based, fluorescence, Alamar Blue, secondary assay (AID 2327);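 further: NIH-3T3 mouse fibroblasts cultured with fluconazole at 8 µg/mL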", "type": "functional"}, "[3]": {"experiment": "fluconazole-exposed Candida albicans growth modulators – fluorescence, retest, confirmation (AID 2467)", "type": "functional, cell-based"}, "[4]": {"target": "T1, Serine/threonine-protein phosphatase (Candida dubliniensis (strain CD36 / CBS 7987 / NCPF 3949 / NRRLY-17841) (Yeast), UniProt B9W6M3)", "T1 sequence (B9W6M3 whole entry)": "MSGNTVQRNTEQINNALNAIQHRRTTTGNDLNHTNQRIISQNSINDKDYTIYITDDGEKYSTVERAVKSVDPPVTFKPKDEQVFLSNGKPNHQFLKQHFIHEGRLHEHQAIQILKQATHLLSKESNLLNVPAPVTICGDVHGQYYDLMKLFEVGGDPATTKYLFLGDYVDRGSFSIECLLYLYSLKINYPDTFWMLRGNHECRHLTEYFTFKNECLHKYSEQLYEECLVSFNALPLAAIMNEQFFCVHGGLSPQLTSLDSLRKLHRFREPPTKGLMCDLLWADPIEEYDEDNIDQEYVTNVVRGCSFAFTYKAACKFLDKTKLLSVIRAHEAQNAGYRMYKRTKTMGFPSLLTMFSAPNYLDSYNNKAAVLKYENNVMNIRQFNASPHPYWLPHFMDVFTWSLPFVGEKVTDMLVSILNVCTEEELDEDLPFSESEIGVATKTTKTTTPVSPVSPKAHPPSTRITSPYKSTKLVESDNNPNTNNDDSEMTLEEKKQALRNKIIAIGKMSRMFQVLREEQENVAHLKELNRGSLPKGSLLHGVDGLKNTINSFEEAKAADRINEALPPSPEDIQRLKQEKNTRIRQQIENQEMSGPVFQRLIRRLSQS", "experiment": "blockers of CaCl2-induced CDRE-lacZ signaling – S. cerevisiae, luminescence, secondary, dose response (AID 2388);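 further: yeast reporter cells carrying a calcineurin-responsive lacZ construct stimulated with calcium chloride; luminescent beta-galactosidase reporter signal in whole cells rather than isolated phosphatase activity; potency for inhibition where a drop in reporter signal means calcineurin blockade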", "type": "functional, cell-based"}, "[5]": {"target": "ATP-dependent molecular chaperone HSP82 (Candida albicans (strain WO-1) (Yeast), UniProt C4YTQ8)", "sequence (C4YTQ8 whole entry)": "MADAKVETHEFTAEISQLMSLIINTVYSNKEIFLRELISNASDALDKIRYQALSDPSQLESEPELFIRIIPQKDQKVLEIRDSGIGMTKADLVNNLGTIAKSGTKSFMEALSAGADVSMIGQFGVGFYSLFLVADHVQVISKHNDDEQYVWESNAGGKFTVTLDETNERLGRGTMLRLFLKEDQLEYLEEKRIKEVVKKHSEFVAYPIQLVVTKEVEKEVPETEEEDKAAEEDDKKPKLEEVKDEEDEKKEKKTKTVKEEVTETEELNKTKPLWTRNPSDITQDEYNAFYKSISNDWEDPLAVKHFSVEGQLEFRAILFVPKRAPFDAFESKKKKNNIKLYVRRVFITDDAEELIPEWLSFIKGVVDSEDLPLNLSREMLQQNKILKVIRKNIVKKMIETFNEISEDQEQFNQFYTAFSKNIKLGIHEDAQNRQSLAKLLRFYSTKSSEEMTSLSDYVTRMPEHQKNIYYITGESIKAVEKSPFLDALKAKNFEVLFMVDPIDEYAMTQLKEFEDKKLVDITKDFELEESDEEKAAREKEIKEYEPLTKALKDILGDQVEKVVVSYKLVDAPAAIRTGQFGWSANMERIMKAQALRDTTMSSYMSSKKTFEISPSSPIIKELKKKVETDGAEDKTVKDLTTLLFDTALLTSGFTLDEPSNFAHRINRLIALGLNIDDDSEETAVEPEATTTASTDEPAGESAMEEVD", "experiment": "steroid-induced GRE reporter decrease in yeast – S. cerevisiae, luminescence, Hsp90 inhibitor project, dose response (AID 2400);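 further: beta-galactosidase luminescence from glucocorticoid response element reporter as proxy for Hsp90 function; inhibitor potency where signal loss means Hsp90 inhibition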", "type": "functional, cell-based"}, "[6]": {"target": "T2, Polyadenylate-binding protein 1 (Homo sapiens, UniProt P11940)", "T2 sequence (P11940 whole entry)": "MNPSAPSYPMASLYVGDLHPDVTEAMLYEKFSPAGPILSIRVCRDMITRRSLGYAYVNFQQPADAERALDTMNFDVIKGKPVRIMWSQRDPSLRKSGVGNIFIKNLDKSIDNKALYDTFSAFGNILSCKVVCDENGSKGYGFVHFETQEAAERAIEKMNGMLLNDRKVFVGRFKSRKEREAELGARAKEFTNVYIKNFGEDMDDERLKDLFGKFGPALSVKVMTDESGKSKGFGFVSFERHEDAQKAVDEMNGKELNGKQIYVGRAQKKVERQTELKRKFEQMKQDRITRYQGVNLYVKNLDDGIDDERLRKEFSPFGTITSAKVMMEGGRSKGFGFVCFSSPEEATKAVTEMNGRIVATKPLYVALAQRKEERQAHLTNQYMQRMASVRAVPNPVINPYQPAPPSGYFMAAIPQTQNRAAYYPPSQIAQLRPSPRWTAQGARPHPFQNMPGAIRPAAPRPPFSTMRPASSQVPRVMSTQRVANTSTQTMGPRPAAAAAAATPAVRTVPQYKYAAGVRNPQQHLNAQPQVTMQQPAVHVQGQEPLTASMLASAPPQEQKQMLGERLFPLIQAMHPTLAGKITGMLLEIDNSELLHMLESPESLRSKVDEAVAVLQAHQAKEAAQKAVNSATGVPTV", "experiment": "MLLE binding blockers, Cy5 peptide tracer – biochemical, fluorescence polarization, Cy5-PAM2 peptide, secondary, miRNA deadenylation inhibitor project, dose response (AID 602260)", "type": "functional", "conditions": "read-out: IC50_Mean"}, "[7]": {"target": "T2, Polyadenylate-binding protein 1", "experiment": "MLLE domain peptide-binding blockers, IC50 – biochemical, fluorescence polarization, FITC-PAM2 peptide, dose response (AID 602259)", "type": "functional", "conditions": "read-out: IC50_Mean"}, "[8]": {"target": "T3, Low molecular weight phosphotyrosine protein phosphatase (Homo sapiens, UniProt P24666)", "T3 sequence (P24666 whole entry)": "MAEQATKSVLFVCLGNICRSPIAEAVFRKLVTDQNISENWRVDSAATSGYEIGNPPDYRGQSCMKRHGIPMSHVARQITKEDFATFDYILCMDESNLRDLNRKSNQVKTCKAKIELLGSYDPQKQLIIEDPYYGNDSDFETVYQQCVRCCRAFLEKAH", "type": "functional", "conditions": "read-out: IC50_Mean"}, "Protein Wnt-3a": {"target": "Protein Wnt-3a (Mus musculus, UniProt P27467)", "sequence (P27467 whole entry)": "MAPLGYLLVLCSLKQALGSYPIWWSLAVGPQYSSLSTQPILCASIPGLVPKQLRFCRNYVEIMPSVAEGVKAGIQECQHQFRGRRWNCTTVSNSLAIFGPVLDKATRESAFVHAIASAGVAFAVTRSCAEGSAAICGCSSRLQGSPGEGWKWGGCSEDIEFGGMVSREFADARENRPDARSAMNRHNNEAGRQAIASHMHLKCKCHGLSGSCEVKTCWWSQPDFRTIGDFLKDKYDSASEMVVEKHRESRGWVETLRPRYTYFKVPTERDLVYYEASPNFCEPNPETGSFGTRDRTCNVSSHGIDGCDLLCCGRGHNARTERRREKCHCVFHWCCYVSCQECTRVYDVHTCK", "experiment": "antagonism of Wnt3a pathway luciferase reporter – Wnt-LIGHT cells, luminescence, selectivity assay for Gli-SUFU antagonist project, dose response (AID 651570);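 further: Wnt-LIGHT reporter cells stimulated with conditioned medium from Wnt3a-producing cells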", "type": "functional", "conditions": "read-out: IC50_Mean"}, "BJ [9]": {"test_system": "BJ", "experiment": "BJ-TERT fibroblast viability loss – cell-based, RAS-independent, luminescence, dose response (AID 1933)", "type": "functional", "conditions": "Homo sapiens"}, "BJ [10]": {"test_system": "BJ", "experiment": "cells", "type": "functional, cell-based", "conditions": "Homo sapiens"}, "BJ [11]": {"test_system": "BJ", "experiment": "BJ-TERT-LT-ST fibroblast viability loss – cell-based, RAS-independent, luminescence, dose response (AID 1935);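 further: BJ fibroblasts immortalized with TERT plus LT and ST oncogenes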", "type": "functional", "conditions": "Homo sapiens"}, "[12]": {"experiment": "DRD fibroblast viability loss – cell-based, non-viral oncogenic, luminescence, dose response (AID 1934)", "type": "functional", "conditions": "Homo sapiens"}, "BJ [13]": {"test_system": "BJ", "experiment": "growth inhibition of engineered Ras-driven BJ cells – cell-based, alamar blue fluorescence, cherrypicked samples, dose response (AID 2631)", "type": "functional", "conditions": "Homo sapiens"}, "Paired box protein Pax-8": {"target": "Paired box protein Pax-8 (Homo sapiens, UniProt Q06710)", "sequence (Q06710 whole entry)": "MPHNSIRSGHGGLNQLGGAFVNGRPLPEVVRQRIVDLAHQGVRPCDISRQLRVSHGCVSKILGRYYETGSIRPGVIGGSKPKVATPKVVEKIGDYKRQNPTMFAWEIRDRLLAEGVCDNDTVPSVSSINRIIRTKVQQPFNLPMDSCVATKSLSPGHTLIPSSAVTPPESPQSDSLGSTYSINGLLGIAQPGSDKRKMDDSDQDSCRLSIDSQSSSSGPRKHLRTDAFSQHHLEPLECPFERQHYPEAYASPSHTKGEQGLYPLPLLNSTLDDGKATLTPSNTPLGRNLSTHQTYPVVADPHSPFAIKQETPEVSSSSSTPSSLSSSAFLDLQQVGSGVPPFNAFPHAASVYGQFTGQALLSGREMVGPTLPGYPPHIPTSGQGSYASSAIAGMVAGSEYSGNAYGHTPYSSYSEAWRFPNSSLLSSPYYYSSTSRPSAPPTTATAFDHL", "experiment": "PAX8 transcriptional activity inhibition in RMG-I – RMG-I cells, luciferase, cherry-pick, dose response (AID 687027);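 further: luciferase reporter driven by Pax8 target thyroperoxidase promoter measured by SteadyGlo luminescence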", "type": "functional, cell-based"}, "[14]": {"experiment": "general cell-killing toxicity readout – plate reader, dry powder samples, cytotoxicity control for PAX8 inhibitor project, dose response (AID 743021)", "type": "functional, cell-based"}}, "note": "Calls of active or inactive are those of the source. For most assays here, no stated cut-off is given here; in the data, actives have a measured EC50 and inactives only a lower limit."}
{"compound": "CCOC(=O)CCCCC(=O)c1[nH]c(=O)[nH]c1CSCCO", "values": [{"measurement": "IC50", "setting": "[1]", "result": "0.695 µM (active)"}]}
{"compound": "Cc1ccc(C)c(NC(S)=NNC(=O)c2csc(C(C)C)c2)c1", "values": [{"measurement": "EC50", "setting": "[2]", "result": "> 150 µM (inactive)"}, {"measurement": "EC50", "setting": "[3]", "result": "0.907 µM (active)"}, {"measurement": "EC50", "setting": "[4]", "result": "> 180 µM (inactive)"}, {"measurement": "EC50", "setting": "[5]", "result": "> 160 µM (inactive)"}, {"measurement": "IC50", "setting": "[6]", "result": "> 66 µM (inactive)"}, {"measurement": "IC50", "setting": "[7]", "result": "> 66 µM (inactive)"}]}
{"compound": "CCc1nnc(NC(=O)CSc2ncc(-c3ccccc3)n2C)s1", "values": [{"measurement": "EC50", "setting": "[2]", "result": "> 150 µM (inactive)"}, {"measurement": "EC50", "setting": "[3]", "result": "1.3 µM (active)"}, {"measurement": "EC50", "setting": "[4]", "result": "> 180 µM (inactive)"}, {"measurement": "EC50", "setting": "[5]", "result": "23.1 µM (active)"}]}
{"compound": "CCCCn1nnnc1C(c1cc2ccccc2o1)N1CCN(c2cc(C)nc3ccccc23)CC1", "note": "(stereo not given)", "values": [{"measurement": "IC50", "setting": "[8]", "result": "9.12 µM (active)"}]}
{"compound": "Cc1ccc(S(=O)(=O)NCCC2=CCCCC2)cc1C(N)=O", "values": [{"measurement": "IC50", "setting": "Protein Wnt-3a", "result": "10.8 µM (active)"}]}
{"compound": "CCCCCCCN(C(=O)CCl)c1cccc(C)c1", "values": [{"measurement": "EC50", "setting": "BJ [9]", "result": "0.36 µM (inconclusive)"}, {"measurement": "EC50", "setting": "BJ [10]", "result": "3.93 µM (inconclusive)"}, {"measurement": "EC50", "setting": "BJ [11]", "result": "> 75 µM (inconclusive)"}, {"measurement": "EC50", "setting": "[12]", "result": "2.48 µM (inconclusive)"}, {"measurement": "EC50", "setting": "BJ [13]", "result": "3.17 µM (active)"}, {"measurement": "AC50", "setting": "Paired box protein Pax-8", "result": "5.91 µM (active)"}, {"measurement": "AC50", "setting": "[14]", "result": "9.19 µM (active)"}]}
{"compound": "CN(Cc1c(F)cccc1Cl)C(=O)CNC(=O)c1ccc2c(c1)OCO2", "values": [{"measurement": "IC50", "setting": "[1]", "result": "6.04 µM (active)"}]}
{"compound": "Cc1ccccc1/C=C1\\SC(=S)N(/N=C/c2cc([N+](=O)[O-])ccc2O)C1=O", "values": [{"measurement": "EC50", "setting": "[2]", "result": "> 160 µM (inactive)"}, {"measurement": "EC50", "setting": "[3]", "result": "2.01 µM (active)"}, {"measurement": "EC50", "setting": "[4]", "result": "> 180 µM (inactive)"}, {"measurement": "EC50", "setting": "[5]", "result": "20.7 µM (active)"}]}
